Our source for the percent span values is PubChem BioAssay AID1329 (NMMLSC, 2008).

Active and inactive are the calls of the source. The rule behind the calls is not given here.

In the test the target is Induced myeloid leukemia cell differentiation protein Mcl-1 (Homo sapiens) (UniProt Q07820). Kind of test: Mcl-1/Bim interaction regulators – biochemical, bead-based flow cytometry, multiplexed, human, dose response (AID 1329). Particulars: Bim peptide-Mcl-1 binding, MCF. On the technique in general: Flow cytometry measures light scatter and fluorescence of single cells or particles in a stream.
Induced myeloid leukemia cell differentiation protein Mcl-1 (Homo sapiens), sequence (Q07820 whole entry, looked up): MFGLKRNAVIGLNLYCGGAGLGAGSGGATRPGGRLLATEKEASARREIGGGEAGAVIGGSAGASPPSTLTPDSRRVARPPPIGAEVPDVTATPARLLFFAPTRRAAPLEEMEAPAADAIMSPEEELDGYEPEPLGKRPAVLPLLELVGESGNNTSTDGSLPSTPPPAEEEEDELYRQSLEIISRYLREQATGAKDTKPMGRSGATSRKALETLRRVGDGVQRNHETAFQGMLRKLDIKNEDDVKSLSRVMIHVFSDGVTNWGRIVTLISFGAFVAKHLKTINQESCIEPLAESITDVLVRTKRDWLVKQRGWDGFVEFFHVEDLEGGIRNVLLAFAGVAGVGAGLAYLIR
As for `COc1ccc(OCCNC(=O)c2ccccc2OCC(=O)N2CCCCC2)cc1`, the percent span result was “inactive”.

As for `Cc1cccc(N2CCN(C(=S)Nc3ccc4nc(N5CCN(C)CC5)cc(C)c4c3)CC2)c1C`, the percent span entry was “inactive”.

As for `CCN1CCN(CC(=O)c2c[nH]c3ccc(C)cc23)CC1`, the percent span result was “inactive”.

As to `O=[N+]([O-])c1ccc(N/N=C/c2ccc(O)c(O)c2O)c(S(=O)(=O)N2CCOCC2)c1`, the percent span entry was “inactive”.

As to `CC(=O)NC1=C(NC2CCS(=O)(=O)C2)C(=O)c2ccccc2C1=O` (stereo unspecified), the percent span result was “inactive”.

With `COc1cc(/C=C2\CC/C(=C\c3cc(OC)c(O)c(OC)c3)C2=O)cc(OC)c1O`, the percent span entry is “inactive”.

Turning to `O=C(COc1ccccc1)N1CCN(c2ncnc3c2cnn3-c2ccccc2)CC1`, the percent span entry is “inactive”.

For the molecule `Cc1c(Cc2ccccc2)sc(N)c1C(N)=O`, the percent span entry was “inactive”.

With `CCOc1ccccc1NC(=O)CSc1ccc2nnc(-c3cccnc3)n2n1`, the percent span entry was “inactive”.

With `COc1cc(OC)c([N+](=O)[O-])cc1/C=N/NC(=O)c1ccncc1`, the percent span entry was “inactive”.

Take `CCOc1cc(/C=N/NC(=O)c2cccs2)cc([N+](=O)[O-])c1O`: the percent span result is “inactive”.

As for `COc1cccc(-n2nnnc2SCC(=O)Nc2cccc(NC(C)=O)c2)c1`, the percent span entry is “inactive”.

For `O=C(c1cccc(Br)c1)N1CCN(c2cnn(-c3ccccc3)c(=O)c2Cl)CC1`, the percent span result was “inactive”.

Regarding `CN1C2C=C3C(C#N)=C(N)C(C#N)(C#N)[C@@H](c4ccsc4)[C@@H]3C1CC2` (stereo partly specified), the percent span result is “inactive”.

Take `COc1ccc(NC(=O)c2cc(-c3ccc(C)o3)nc3ccccc23)cc1OC`: the percent span entry is “inactive”.

`COc1ccc(N2C(=O)C(Cl)=C(Nc3c(C)n(C)n(-c4ccccc4)c3=O)C2=O)cc1`: the percent span result is “inactive”.

With `O=S1(=O)N=C(N(CCO)/N=C/c2ccccc2)c2ccccc21`, the percent span entry was “inactive”.

`O=C(Nc1cccc(Cl)c1)Nc1ccnc(-c2cccnc2)n1`: the percent span entry is “inactive”.

For the molecule `O=C(NCCCN1CCCC1=O)NC1CCCCC1`, the percent span result was “inactive”.

Turning to `CC1=C2C(CCS2(=O)=O)CC2(C1)C(=O)OC(C)(C)OC2=O` (stereo unspecified), the percent span entry is “inactive”.

With `Cc1ccc(-c2cc(C(=O)N3CCN(c4ncccn4)CC3)c3cc(Br)ccc3n2)o1`, the percent span entry was “inactive”.

Regarding `COc1cccc(/C=N/Nc2nn3cnnc3c3ccccc23)c1`, the percent span result was “inactive”.

Consider `O=C1c2ccccc2C(=O)N1c1cccc2cccnc12`, for which the percent span entry was “inactive”.

Regarding `COc1ccc(C2CN(C)CC2C(=O)c2ccc(F)cc2)cc1Cl` (stereo unspecified), the percent span result is “inactive”.

For the molecule `CCN(CC)c1ccc(NC(=O)c2ccc(=O)[nH]c2)cc1S(=O)(=O)Nc1ccccc1OC`, the percent span entry was “inactive”.

For `COc1ccc(-c2noc(COc3ccc4c(c3)OCO4)n2)cc1OC`, the percent span entry was “inactive”.

In the case of `CC1CC2=C(NC(=S)NC2c2ccccc2F)/C(=C/c2ccccc2F)C1` (stereo unspecified), the percent span entry is “inactive”.

Regarding `Cc1cccc(-n2c(-c3ccncc3)n[nH]c2=S)c1`, the percent span result is “inactive”.

As for `O=C(c1ccc(CNS(=O)(=O)c2ccc(Br)cc2)cc1)N1CCCC1`, the percent span entry was “inactive”.

As to `CC1Cc2ccccc2N1C(=O)CSc1nnnn1-c1ccc2c(c1)OCCO2` (stereo unspecified), the percent span result was “inactive”.

As for `Cc1ccc(-c2cc(C(=O)Nc3ccccn3)c3ccccc3n2)o1`, the percent span result was “inactive”.

As to `CCC(CC)C(=O)Nc1cccc(SC)c1`, the percent span result was “inactive”.

As for `CCOc1c(Cl)cc(CNc2ccc(N3CCCC3)cc2)cc1OC`, the percent span entry was “inactive”.

Regarding `O=C1C(=O)c2ccc(-c3ccccc3)cc2-c2ccccc21`, the percent span entry was “inactive”.

With `COc1ccccc1OCc1ccc(C(=O)Nc2ccccc2F)cc1`, the percent span entry was “inactive”.

`CSc1nnc2ccc(-c3cccs3)nn12`: the percent span entry was “inactive”.

With `CCN(CC)c1nc(N)nc(N(c2ccccc2)c2ccccc2)n1`, the percent span entry is “inactive”.

Consider `CN=C(NC1CCCCC1)c1ccc(Cl)cc1`, for which the percent span result is “inactive”.

As to `O=C(NCCO)c1ccc2nc(-c3ccco3)c(-c3ccco3)nc2c1`, the percent span result was “inactive”.

With `CC1C=CCC2C(=O)N(c3ccc(OC(=O)c4cccs4)cc3)C(=O)C12` (stereo unspecified), the percent span entry is “inactive”.

In the case of `CC(C)(C)NC(=O)COc1ccc(CNc2ccc3[nH]c(=O)[nH]c3c2)cc1`, the percent span result is “inactive”.

For the molecule `CCNC(=O)N1c2ccc(OCC)cc2C(C)=CC1(C)C`, the percent span result is “inactive”.

Turning to `COc1ccc(NS(=O)(=O)c2cc(NC(=O)c3ccc(C)o3)ccc2N2CCCCC2)cc1`, the percent span entry was “inactive”.

For `O=[N+]([O-])c1ccc(N2CCN(c3ccc(O)cc3)CC2)c(Cl)c1`, the percent span result was “inactive”.

As to `COc1ccc(C2(NC(C)=O)CCN(C(=O)c3ccco3)CC2)cc1`, the percent span result was “inactive”.

On to `N#Cc1cc(-c2ccccc2)nn1-c1ccccc1`, for which the percent span entry is “inactive”.

Regarding `Clc1nssc1=Nc1ccccc1`, the percent span result was “inactive”.

`Cc1ccc(/C=C/C(=O)c2ccccc(=O)c2O)cc1C`: the percent span entry was “inactive”.

For the molecule `CC(C(=O)Nc1ccc([N+](=O)[O-])cc1)N1CCN(C/C=C/c2ccccc2)CC1` (stereo unspecified), the percent span entry was “inactive”.

With `Cc1ccc(NC(=S)N2CCn3cccc3C2c2cccnc2)cc1` (stereo unspecified), the percent span result is “inactive”.

With `COc1cc(/C=N/Nc2nc3c(c(=O)n(C)c(=O)n3C)n2Cc2ccccc2)ccc1OC(=O)c1ccco1`, the percent span result is “inactive”.

With `Cc1cc(-c2cc(-c3ccc(Cl)cc3)nc(N)c2C#N)co1`, the percent span result was “inactive”.

As to `CCc1cccc(NC(=O)COc2ccccc2)c1`, the percent span entry was “inactive”.

On to `CCOC(=O)C1=C(CC)Nc2ccccc2N=C1NC(=O)c1ccc(S(=O)(=O)N2CCOCC2)cc1`, for which the percent span result was “inactive”.

`CCOc1ncccc1C(=O)OC(C)C(=O)Nc1ccc(CC)cc1` (stereo unspecified): the percent span result is “inactive”.

Turning to `c1ccc2c(N3CCOCC3)nc(N3CCOCC3)nc2c1`, the percent span result was “inactive”.

Consider `CCN(CC)c1ccc(NC(=O)COc2ccccc2C)cc1S(=O)(=O)Nc1ccccc1OC`, for which the percent span result is “inactive”.

`COc1cccc(C(=O)/C=C/Nc2ccc(S(=O)(=O)Nc3onc(C)c3C)cc2)c1`: the percent span entry is “inactive”.

For `COc1cc(NC(=S)NC(=O)c2cc(C)cc(C)c2)ccc1NC(=O)c1cccs1`, the percent span entry is “inactive”.

In the case of `O=C(/C=C/c1ccc(-c2ccccc2[N+](=O)[O-])o1)c1ccccc1`, the percent span result is “inactive”.

Take `Cc1ccc(NC(=O)CC2S/C(=N/N=C/c3c[nH]c4ccccc34)NC2=O)cc1` (stereo unspecified): the percent span result is “inactive”.

In the case of `CCCCOc1ccc(Cc2c(Cl)nc(SC)nc2N2CCOCC2)cc1`, the percent span result was “inactive”.

Take `COc1ccc(NC(=O)c2cccs2)cc1`: the percent span result was “inactive”.

As for `CCOC(=O)c1c(NC(C)=O)sc2c(O)c(Br)cc(Br)c12`, the percent span entry is “inactive”.

Regarding `C/C(=N/NC(=O)c1cc(O)c(O)c(O)c1)c1ccc([N+](=O)[O-])cc1`, the percent span result is “inactive”.

Regarding `Cc1ccc(N=C2NC(=O)/C(=C/C=C/c3ccco3)S2)cc1`, the percent span entry was “inactive”.

Consider `CCOC(=O)c1nn(-c2ccccc2)c(C#N)c1N`, for which the percent span result was “inactive”.

On to `CCCn1c(C)cc(-c2csc(N)n2)c1C`, for which the percent span entry was “inactive”.

On to `Cc1cc(C)c(C)c(S(=O)(=O)N2CCN(CC(=O)NC(=O)NCc3ccccc3)CC2)c1C`, for which the percent span result is “inactive”.

With `Cc1csc(SCCn2c(N3CCN(c4ccccc4)CC3)nc3c2c(=O)[nH]c(=O)n3C)n1`, the percent span result was “inactive”.

On to `CCCC1(C(=O)OCC)NC(c2cc(OC)c(OC)c(OC)c2)C2C(=O)N(CC)C(=O)C21` (stereo unspecified), for which the percent span result is “inactive”.

Turning to `COc1cccc(NC(=O)CSc2nncn2N)c1`, the percent span entry is “inactive”.

Consider `CN(C)CCNC(=O)C(=O)C1C(=O)Nc2ccccc21` (stereo unspecified), for which the percent span result is “inactive”.

With `CC(C)CNC(=O)c1cccc(NC(=O)c2ccc(Cl)c([N+](=O)[O-])c2)c1`, the percent span result was “inactive”.

As to `O=C(c1cnccn1)N(Cc1cccs1)C1(C(=O)NC2CCCCC2)CCCCC1`, the percent span entry is “inactive”.

Turning to `O=C1NC(=O)C2(Cc3c(nc4ccccn4c3=O)N3CCCCCC32)C(=O)N1Cc1ccccc1` (stereo unspecified), the percent span entry is “inactive”.

For `O=C(Nc1n[nH]c(C(F)(F)F)n1)C1CC1`, the percent span result was “inactive”.

Take `Cc1ccccc1-c1nc(-c2ccc(NC(=O)c3ccc4c(c3)OCO4)cc2)no1`: the percent span result was “inactive”.

In the case of `COc1cc(N2CCOCC2)ccc1C=C1C(=O)NC(=O)NC1=O`, the percent span entry was “inactive”.

As to `Cc1ccc(-c2cc(-c3ccc(F)cc3)nc(N)c2C#N)o1`, the percent span entry was “inactive”.

For the molecule `CN(CCCOc1ccccc1Br)Cc1ccccc1`, the percent span result was “inactive”.

`COc1ccc(N2C(=O)C(Cl)=C(Oc3cccc(OC)c3)C2=O)cc1`: the percent span result was “inactive”.

As to `O=C(N/N=C/c1cccc([N+](=O)[O-])c1)c1cccs1`, the percent span result is “inactive”.

Consider `CCOc1cc(/C=N/NC(N)=O)ccc1OCC(=O)Nc1ccc(C)c(C)c1`, for which the percent span result is “inactive”.

As to `COC(=O)c1[nH]c2ccccc2c1NC(=O)c1ccccc1[N+](=O)[O-]`, the percent span result is “inactive”.

Take `O=C(CSc1ccc2nnc(-c3ccncc3)n2n1)Nc1nccs1`: the percent span entry is “inactive”.

With `COc1ccc2nc(C)cc(SCC(=O)N/N=C/c3ccc(O)cc3O)c2c1`, the percent span result is “inactive”.

Regarding `CCCCOC(=O)c1nc(Cl)c(Cl)c(N)c1Cl`, the percent span result was “inactive”.

Consider `O=C(Cn1c(-c2ccccc2)noc1=O)N1CCC(Cc2ccccc2)CC1`, for which the percent span result is “inactive”.

Consider `CC1=CC(=O)c2c(O)ccc(O)c2C1=O`, for which the percent span result was “inactive”.

As for `Cc1cccc(-c2nnc3n2N=C(c2ccccc2)CS3)c1`, the percent span result was “inactive”.
